Experimental data: patent EP0347459A1, “CEPHALOSPORIN COMPOUNDS OR THEIR SALTS, PROCESS FOR THEIR PREPARATION, AND PHARMACEUTICAL COMPOSITIONS” (TEIJIN LIMITED, priority 1987, dated 1988)
≈ marks a conversion by molar mass, not a printed value.

Tests used:
Type in all cases: cell-based
P.vulgalis OX-11 = experiment: In vitro antibacterial activity, agar disc dilution method; settings: P.vulgalis OX-11; Mueller Hinton agar, 10^6/ml, 37°C for 16 hours; read-out: minimum growth inhibitory concentration (MIC)
Procedure: (§1) An in vitro antibacterial activity was measured by an agar disc dilution method.
(§2) Varied test bacteria were cultivated overnight in triptophane-soybroth. A Mueller Hinton agar containing the compound of this invention in varied concentrations was streaked with one platinum loopful of each of the bacteria (number of living cells 10^6/ml).

P.aeruginosa IFO3445 = experiment: as above; settings: Pseudomonas aeruginosa; P.aeruginosa IFO3445; Mueller Hinton agar, 10^6/ml, 37°C for 16 hours; read-out: minimum growth inhibitory concentration (MIC)
Procedure: as §1, §2

P.aeruginosa NCTC1049 = experiment: as above; settings: Pseudomonas aeruginosa; P.aeruginosa NCTC1049; Mueller Hinton agar, 10^6/ml, 37°C for 16 hours; read-out: minimum growth inhibitory concentration (MIC)
Procedure: as §1, §2

S.marcescens IAM1184 = experiment: as above; settings: Serratia marcescens; S.marcescens IAM1184; Mueller Hinton agar, 10^6/ml, 37°C for 16 hours; read-out: minimum growth inhibitory concentration (MIC)
Procedure: as §1, §2

S.pyogenes Cook = experiment: as above; settings: Streptococcus pyogenes; S.pyogenes Cook; Mueller Hinton agar, 10^6/ml, 37°C for 16 hours; read-out: minimum growth inhibitory concentration (MIC)
Procedure: as §1, §2

K.pneumoniae PCI602 = experiment: as above; settings: Klebsiella pneumoniae; K.pneumoniae PCI602; Mueller Hinton agar, 10^6/ml, 37°C for 16 hours; read-out: minimum growth inhibitory concentration (MIC)
Procedure: as §1, §2

S.enteritidis G14 = experiment: as above; settings: Salmonella enterica; S.enteritidis G14; Mueller Hinton agar, 10^6/ml, 37°C for 16 hours; read-out: minimum growth inhibitory concentration (MIC)
Procedure: as §1, §2

P.aeruginosa PAD1 = experiment: as above; settings: Pseudomonas aeruginosa; P.aeruginosa PAD1; Mueller Hinton agar, 10^6/ml, 37°C for 16 hours; read-out: minimum growth inhibitory concentration (MIC)
Procedure: as §1, §2

S.aureus 209p NIHJ JC1 = experiment: as above; settings: Staphylococcus aureus; S.aureus 209p NIHJ JC1; Mueller Hinton agar, 10^6/ml, 37°C for 16 hours; read-out: minimum growth inhibitory concentration (MIC)
Procedure: as §1, §2

E.cloacae 963 = experiment: as above; settings: Enterobacter cloacae; E.cloacae 963; Mueller Hinton agar, 10^6/ml, 37°C for 16 hours; read-out: minimum growth inhibitory concentration (MIC)
Procedure: as §1, §2

M.luteus ATCC9341 = experiment: as above; settings: Micrococcus luteus; M.luteus ATCC9341; Mueller Hinton agar, 10^6/ml, 37°C for 16 hours; read-out: minimum growth inhibitory concentration (MIC)
Procedure: as §1, §2

S. aureus Terajima = experiment: as above; settings: Staphylococcus aureus; S. aureus Terajima; Mueller Hinton agar, 10^6/ml, 37°C for 16 hours; read-out: minimum growth inhibitory concentration (MIC)
Procedure: as §1, §2

P.morganii IFO3445 = experiment: as above; settings: Morganella morganii; P.morganii IFO3445; Mueller Hinton agar, 10^6/ml, 37°C for 16 hours; read-out: minimum growth inhibitory concentration (MIC)
Procedure: as §1, §2

S.typhi 901 = experiment: as above; settings: Salmonella enterica, 16 h, read-out: minimum growth inhibitory concentration (MIC)
Procedure: as §1, §2

P.aeruginosa 64 = experiment: MIC values of 10 kinds of Pseudomonas aeruginosa; settings: Pseudomonas aeruginosa, 16 h; P.aeruginosa 64 (Table II); read-out: MIC values
Procedure: as §1, §2
(§3) MIC values of 10 kinds of Pseudomonas aeruginosa were measured for Compound III, Comparative Example B and CAZ.

P.aeruginosa ATCC27318 = experiment: MIC values of 10 kinds of Pseudomonas aeruginosa; settings: 16 h, P.aeruginosa ATCC27318 (Table II), read-out: MIC values
Procedure: as §1, §2, §3

P.aeruginosa NO. 97 = experiment: MIC values of 10 kinds of Pseudomonas aeruginosa; settings: 16 h, P.aeruginosa NO. 97 (Table II), read-out: MIC values
Procedure: as §1, §2, §3

P.aeruginosa 88 = experiment: MIC values of 10 kinds of Pseudomonas aeruginosa; settings: Pseudomonas aeruginosa, 16 h; P.aeruginosa 88 (Table II); read-out: MIC values
Procedure: as §1, §2, §3

P.aeruginosa 0-11 = experiment: MIC values of 10 kinds of Pseudomonas aeruginosa; settings: Pseudomonas aeruginosa, 011, 16 h; P.aeruginosa 0-11 (Table II); read-out: MIC values
Procedure: as §1, §2, §3

P.aeruginosa N-2 = experiment: MIC values of 10 kinds of Pseudomonas aeruginosa; settings: N2, 16 h, P.aeruginosa N-2 (Table II), read-out: MIC values
Procedure: as §1, §2, §3

P.aeruginosa ATCC27577 = experiment: MIC values of 10 kinds of Pseudomonas aeruginosa; settings: 16 h, P.aeruginosa ATCC27577 (Table II), read-out: MIC values
Procedure: as §1, §2, §3

P.aeruginosa N-3 = experiment: MIC values of 10 kinds of Pseudomonas aeruginosa; settings: N3, 16 h, P.aeruginosa N-3 (Table II), read-out: MIC values
Procedure: as §1, §2, §3

P.aeruginosa Tid53 = experiment: MIC values of 10 kinds of Pseudomonas aeruginosa; settings: 16 h, P.aeruginosa Tid53 (Table II), read-out: MIC values
Procedure: as §1, §2, §3

P.aeruginosa N-26 = experiment: MIC values of 10 kinds of Pseudomonas aeruginosa; settings: N26, 16 h, P.aeruginosa N-26 (Table II), read-out: MIC values
Procedure: as §1, §2, §3

Row | Compound | MIC (P.vulgalis OX-11) | MIC (P.aeruginosa IFO3445) | MIC (P.aeruginosa NCTC1049) | MIC (S.marcescens IAM1184) | MIC (S.pyogenes Cook) | MIC (K.pneumoniae PCI602) | MIC (S.enteritidis G14) | MIC (P.aeruginosa PAD1) | MIC (S.aureus 209p NIHJ JC1) | MIC (E.cloacae 963) | MIC (M.luteus ATCC9341) | MIC (S. aureus Terajima) | MIC (P.morganii IFO3445) | MIC (S.typhi 901) | also measured
1 | CON=C(C(=O)NC1C(=O)N2C(C(=O)[O-])=C(C[n+]3ccc4cc(O)c(O)cc4c3)CSC12)c1nsc(N)n1 [Compound I, (6R,7R)-7-[(Z)-2-(5-amino-1,2,4-thiadiazol-3-yl-2-methoxyimino)acetamide]-3-(6,7-dihydroxy-2-isoquinolinium)methyl-3-cephem-4-carboxylate] | 0.005 µg/mL (≈ 0.00897 µM) | 12.5 µg/mL (≈ 22.4 µM) | 0.2 µg/mL (≈ 0.359 µM) | 0.005 µg/mL (≈ 0.00897 µM) | 0.05 µg/mL (≈ 0.0897 µM) | 0.005 µg/mL (≈ 0.00897 µM) | 0.005 µg/mL (≈ 0.00897 µM) | 12.5 µg/mL (≈ 22.4 µM) | 1.6 µg/mL (≈ 2.87 µM) | 0.005 µg/mL (≈ 0.00897 µM) | 0.1 µg/mL (≈ 0.179 µM) | 1.6 µg/mL (≈ 2.87 µM) | 0.005 µg/mL (≈ 0.00897 µM) | 0.005 µg/mL (≈ 0.00897 µM) | 
2 | CON=C(C(=O)NC1C(=O)N2C(C(=O)[O-])=C(C[n+]3ccc4cc(O)c(O)cc4c3)CSC12)c1csc(N)n1 [Comparative Compound A, (6R,7R)-7-[(Z)-2-(2-amino-l,3-thiazol-4-yl)-2-methoxyiminolacetamide-3-(6,7-dihydroxy-2-isoquinolinium)methyl-3-cephem-4-carboxylate, reference compound] | 0.005 µg/mL (≈ 0.00898 µM) | 50 µg/mL (≈ 89.8 µM) | 0.2 µg/mL (≈ 0.359 µM) | 0.005 µg/mL (≈ 0.00898 µM) | 0.2 µg/mL (≈ 0.359 µM) | 0.005 µg/mL (≈ 0.00898 µM) | 0.005 µg/mL (≈ 0.00898 µM) | 50 µg/mL (≈ 89.8 µM) | 0.4 µg/mL (≈ 0.719 µM) | 0.025 µg/mL (≈ 0.0449 µM) | 0.4 µg/mL (≈ 0.719 µM) | 0.4 µg/mL (≈ 0.719 µM) | 0.1 µg/mL (≈ 0.18 µM) | 0.005 µg/mL (≈ 0.00898 µM) | 
3 | CC(C)(ON=C(C(=O)NC1C(=O)N2C(C(=O)[O-])=C(C[n+]3ccc4cc(O)c(O)cc4c3)CSC12)c1csc(N)n1)C(=O)O [Comparative Compound B, (6R,7R)-7-[(Z)-2-(2-amino-l,3-thiazol-4-yl)-2-(2-carboxypropyl-2-yloxyimino)acetamide]-3-(6,7-dihydroxy-2-isoquinolinium)methyl-3-cephem-4-carboxylate, reference compound] | 0.005 µg/mL (≈ 0.00795 µM) | 0.025 µg/mL (≈ 0.0398 µM) | 0.0125 µg/mL (≈ 0.0199 µM) | 0.005 µg/mL (≈ 0.00795 µM) | 1.6 µg/mL (≈ 2.55 µM) | 0.005 µg/mL (≈ 0.00795 µM) | 0.005 µg/mL (≈ 0.00795 µM) | 0.025 µg/mL (≈ 0.0398 µM) | 12.5 µg/mL (≈ 19.9 µM) | 0.005 µg/mL (≈ 0.00795 µM) | 3.1 µg/mL (≈ 4.93 µM) | 3.1 µg/mL (≈ 4.93 µM) | 0.005 µg/mL (≈ 0.00795 µM) | 0.005 µg/mL (≈ 0.00795 µM) | MIC (P.aeruginosa 64): 0.05 µg/mL (≈ 0.0795 µM); MIC (P.aeruginosa ATCC27318): 0.05 µg/mL (≈ 0.0795 µM); MIC (P.aeruginosa NO. 97): 0.025 µg/mL (≈ 0.0398 µM); MIC (P.aeruginosa 88): 0.025 µg/mL (≈ 0.0398 µM); MIC (P.aeruginosa 0-11): 0.05 µg/mL (≈ 0.0795 µM); MIC (P.aeruginosa N-2): 0.05 µg/mL (≈ 0.0795 µM); MIC (P.aeruginosa ATCC27577): 0.005 µg/mL (≈ 0.00795 µM); MIC (P.aeruginosa N-3): 0.05 µg/mL (≈ 0.0795 µM); MIC (P.aeruginosa Tid53): 0.05 µg/mL (≈ 0.0795 µM); MIC (P.aeruginosa N-26): 0.1 µg/mL (≈ 0.159 µM)
